The values that follow come from patent publication US20230364121A1 (priority 2020, published 2023).

Where “and” joins values, the source holds several entries; their conditions need not be identical. Identical values can stand only once.

Assay [1] addresses T1, SARS-CoV-2 ExoN (nsp14/nsp10) (Severe acute respiratory syndrome coronavirus 2, UniProt P0DTD1).
T1 construct: 50 nM nsp14/nsp10 (1:5) were added for time-course reactions
The class given is biochemical.

The test system of the next assay is SARS-CoV-2 viral genome. The class given is cell-based.

As for `C[C@@]1(F)[C@H](O)[C@@H](COP(=O)(O)OP(=O)(O)OP(=O)(O)O)O[C@H]1n1cnc2c(=O)[nH]c(N)nc21` [AT-9010, 2′-fluoro-2′-C-methylguanosine-5′-triphosphate], in assay [1], the “resistance to ExoN mediated excision relative to an unmodified RNA 3′-end” value is about 4.8 fold.
Consider `CNc1nc(N)nc2c1ncn2[C@@H]1O[C@H](COP(=O)(N[C@@H](C)C(=O)OC(C)C)Oc2ccccc2)[C@@H](O)[C@@]1(C)F` (stereo partly shown) [Compound 1A], for which, in the assay on SARS-CoV-2 viral genome, the “Mean number of mutations, transition A > G” value was determined as 429; the “Mean number of mutations, transition C > T” value was 24.5; the “Mean number of mutations, transition G > A” value is given as 6; the “Mean number of mutations, transition T > C” value is on record as 473. In the assay on SARS-CoV-2 viral genome, the “Number of Mutations, transition A > G” value is 454 and 404; the “Number of Mutations, transition C > T” value was 22 and 27; the “Number of Mutations, transition G > A” value was 7 and 5; the “Number of Mutations, transition T > C” value was 489 and 457. Further, the “number of mutations compared to virus control Vc” value in the assay on SARS-CoV-2 viral genome is recorded as “did not show an increased number of mutations”.
As to `CC(C)C[C@H](NC(=O)OCc1ccccc1)C(=O)N[C@@H](C[C@@H]1CCNC1=O)C(O)S(=O)(=O)O` (stereo partly shown) [GC376], the “number of mutations compared to virus control Vc” value with SARS-CoV-2 viral genome was “slight increase of the number of mutations”.
With `CC(C)C[C@H](NC(=O)OCc1ccccc1)C(=O)N[C@@H](CC1CCNC1=O)C(O)S(=O)(=O)[O-].[Na+]` (stereo partly shown) [GC 376], in the assay with SARS-CoV-2 viral genome, the “Mean number of mutations, transition A > G” value was determined as 465.5; the “Mean number of mutations, transition C > T” value stood at 62; the “Mean number of mutations, transition G > A” value is on record as 14.5; the “Mean number of mutations, transition T > C” value was found to be 532.5. In the assay with SARS-CoV-2 viral genome, the “Number of Mutations, transition A > G” value was 545 and 368; the “Number of Mutations, transition C > T” value is 51 and 73; the “Number of Mutations, transition T > C” value is 662 and 403.
Turning to `CC(C)C(=O)OC[C@H]1O[C@@H](n2ccc(NO)nc2=O)[C@H](O)[C@@H]1O` [Molnupiravir, molnupiravir], in the assay on SARS-CoV-2 viral genome, the “Mean number of mutations, transition A > G” value is 842; the “Mean number of mutations, transition C > T” value amounted to 592; the “Mean number of mutations, transition G > A” value came to 385; the “Mean number of mutations, transition T > C” value came out at 910.5. Moreover, in the assay with SARS-CoV-2 viral genome, the “Number of Mutations, transition A > G” value was 813 and 871; the “Number of Mutations, transition C > T” value is 602 and 582; the “Number of Mutations, transition G > A” value is on record as 385; the “Number of Mutations, transition T > C” value was 932 and 889. The “number of mutations compared to virus control Vc” value with SARS-CoV-2 viral genome is listed as “significant increase in the number of mutations”.
As for `C[C@@]1(F)[C@H](O)[C@@H](COP(=O)(O)OP(=O)(O)OP(=O)(O)O)O[C@H]1n1ccc(=O)[nH]c1=O` [STP, 5′-triphosphate 2′-fluoro-2′-C-methyl uridine], in assay [1], the “resistance to ExoN mediated excision relative to an unmodified RNA 3′-end” value is reported as about 1.2 fold.
